We go through eleven molecules from US20030166932A1 (priority 2002, published 2003).

pEC50, pKi: −log10 of the molar value.

The target of assay [1] is T1, RXRα (Homo sapiens, UniProt P19793).
T1 sequence (P19793 1-462): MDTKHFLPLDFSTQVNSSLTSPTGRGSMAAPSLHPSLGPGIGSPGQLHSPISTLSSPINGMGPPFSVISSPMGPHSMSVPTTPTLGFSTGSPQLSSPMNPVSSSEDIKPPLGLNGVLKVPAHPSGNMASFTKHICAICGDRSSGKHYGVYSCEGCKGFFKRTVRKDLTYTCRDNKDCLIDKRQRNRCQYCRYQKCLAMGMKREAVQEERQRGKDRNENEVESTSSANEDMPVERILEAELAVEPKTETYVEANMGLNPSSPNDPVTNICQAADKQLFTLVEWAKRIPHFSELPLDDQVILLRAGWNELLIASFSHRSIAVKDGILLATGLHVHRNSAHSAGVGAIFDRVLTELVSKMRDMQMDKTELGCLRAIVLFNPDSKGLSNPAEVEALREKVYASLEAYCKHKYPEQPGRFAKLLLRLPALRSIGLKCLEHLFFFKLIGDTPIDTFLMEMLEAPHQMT
Briefly: ligand binding assay.
Description: (§1) The results obtained in this assay are expressed in EC50 numbers, as they are also in the chimeric receptor transactivation assay. The results of ligand binding assay are expressed in Kd numbers.
(§2) Particularly, the transactivation data pertaining to RAR receptors were obtained in the chimeric assay, and the data pertaining to transactivation of RXR receptors were obtained in the holoreceptor transactivation assay.

Assay [2] addresses T2, RXRγ (UniProt P28705).
T2 sequence (P28705 1-463): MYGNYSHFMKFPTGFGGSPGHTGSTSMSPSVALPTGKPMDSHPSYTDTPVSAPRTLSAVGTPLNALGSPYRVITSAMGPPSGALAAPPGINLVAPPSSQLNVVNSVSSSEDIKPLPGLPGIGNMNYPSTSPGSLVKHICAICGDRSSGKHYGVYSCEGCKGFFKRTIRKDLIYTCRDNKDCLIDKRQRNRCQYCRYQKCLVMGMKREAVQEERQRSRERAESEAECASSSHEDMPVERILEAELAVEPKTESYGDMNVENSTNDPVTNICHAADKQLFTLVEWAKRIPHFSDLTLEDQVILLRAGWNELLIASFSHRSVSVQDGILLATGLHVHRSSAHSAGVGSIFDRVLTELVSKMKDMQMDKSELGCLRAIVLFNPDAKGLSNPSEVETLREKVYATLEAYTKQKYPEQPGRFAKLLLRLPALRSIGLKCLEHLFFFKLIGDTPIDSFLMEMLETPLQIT
Briefly: ligand binding assay. Conditions: read-out: RXR Bind Ki (nM) Y.

The next assay has as its target T3, RARβ (Homo sapiens, UniProt P10826).
T3 sequence (P10826 1-455): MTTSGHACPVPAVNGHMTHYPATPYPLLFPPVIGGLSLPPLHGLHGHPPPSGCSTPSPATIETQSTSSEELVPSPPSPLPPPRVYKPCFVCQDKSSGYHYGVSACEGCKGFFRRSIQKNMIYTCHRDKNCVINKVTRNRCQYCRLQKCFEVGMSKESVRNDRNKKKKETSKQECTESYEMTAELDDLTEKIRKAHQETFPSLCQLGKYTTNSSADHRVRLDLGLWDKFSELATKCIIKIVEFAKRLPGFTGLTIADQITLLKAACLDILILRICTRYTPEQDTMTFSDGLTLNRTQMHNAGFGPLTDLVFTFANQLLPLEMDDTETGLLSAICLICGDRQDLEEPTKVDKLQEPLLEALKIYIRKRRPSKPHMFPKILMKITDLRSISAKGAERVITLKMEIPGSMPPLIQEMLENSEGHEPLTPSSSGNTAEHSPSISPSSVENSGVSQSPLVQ
Description: ligand binding assay. Particulars: read-out: RAR Bind. Ki (nM) β.

The target of assay [3] is T4, RXRβ (UniProt P28704).
T4 sequence (P28704 1-520): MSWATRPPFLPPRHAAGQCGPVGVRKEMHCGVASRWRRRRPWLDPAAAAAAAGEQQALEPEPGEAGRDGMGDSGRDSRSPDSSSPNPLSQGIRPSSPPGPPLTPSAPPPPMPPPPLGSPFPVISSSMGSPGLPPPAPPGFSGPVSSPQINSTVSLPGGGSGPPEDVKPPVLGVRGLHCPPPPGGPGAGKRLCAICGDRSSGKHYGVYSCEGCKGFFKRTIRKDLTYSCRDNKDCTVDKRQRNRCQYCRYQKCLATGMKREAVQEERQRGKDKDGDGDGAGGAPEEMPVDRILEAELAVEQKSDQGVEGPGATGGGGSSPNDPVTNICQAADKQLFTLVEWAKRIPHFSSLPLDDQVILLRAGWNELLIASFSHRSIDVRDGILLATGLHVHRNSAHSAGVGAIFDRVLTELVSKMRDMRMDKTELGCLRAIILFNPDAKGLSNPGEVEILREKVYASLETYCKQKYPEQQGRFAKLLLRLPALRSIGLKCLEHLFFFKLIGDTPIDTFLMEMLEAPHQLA
Description: holoreceptor transactivation assay. The class given is cell-based. Conditions: for EC50: NA = Not Active, read-out: RXR Trans. EC50 (nM) β; for % efficacy, RXR Trans. β: relative to 10^−6 M AGN 194204.
Description: as §1, §2

Assay [4] has as its target T2, RXRγ. Briefly: holoreceptor transactivation assay. The class given is cell-based. Particulars: for EC50: NA = Not Active, read-out: RXR Trans. EC50 (nM) Y; for % efficacy, RXR Trans. Y: relative to 10^−6 M AGN 194204.
Description: as §1, §2
Assay [5] concerns the target T4, RXRβ. Briefly: ligand binding assay. Particulars: read-out: RXR Bind Ki (nM) β.
Description: as §1, §2
In assay [6] the target is T1, RXRα. Briefly: holoreceptor transactivation assay. Conditions: for Emax: read-out: % efficacy, RXR Trans. α.
Description: as §1, §2
The target in the next assay is T5, RARγ (Homo sapiens, UniProt P13631).
T5 sequence (P13631 1-454): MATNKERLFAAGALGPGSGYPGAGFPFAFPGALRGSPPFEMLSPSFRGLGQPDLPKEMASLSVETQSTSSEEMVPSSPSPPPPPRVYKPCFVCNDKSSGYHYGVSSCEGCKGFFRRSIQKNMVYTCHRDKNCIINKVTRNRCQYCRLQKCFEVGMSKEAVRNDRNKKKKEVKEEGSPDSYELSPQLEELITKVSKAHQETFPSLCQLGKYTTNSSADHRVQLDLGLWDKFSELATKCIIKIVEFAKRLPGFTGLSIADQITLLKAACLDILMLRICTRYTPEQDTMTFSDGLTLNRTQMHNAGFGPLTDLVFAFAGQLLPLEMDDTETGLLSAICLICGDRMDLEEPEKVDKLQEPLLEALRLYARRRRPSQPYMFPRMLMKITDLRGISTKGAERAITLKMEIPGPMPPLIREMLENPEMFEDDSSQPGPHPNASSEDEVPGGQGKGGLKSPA
Briefly: ligand binding assay. Particulars: read-out: RAR Bind. Ki (nM) Y.

As usually defined, the pKi is −log10 of the Ki, conventionally taken in molar units. High values mean a small Ki, low ones a large Ki. As a reminder, the Ki is the dissociation constant of the complex between target and ligand, obtained from inhibition or displacement. The term EC50 denotes the concentration that produces a half-maximal response. In general, pEC50 refers to the EC50 on a negative log10 scale, so that one unit is a factor of ten. Read a high pEC50 as a small EC50.

Description for RARβ: as §1, §2
Description for RARγ: as §1, §2

On RXRα [1], `CCCN(c1ccc(C(=O)O)cc1)c1ccc2c(c1)C(C(C)(C)C)=CCC2(C)C` [Compound 89] showed a pKi of 8.15. On RXRγ [2], the Ki came out at 8 nM. The Ki at RARβ is over 10000 nM. At RXRβ [3], the EC50 was found to be 8 nM and the “% efficacy, RXR Trans. β” value is “(93) %”. Also, on RXRγ [4], the EC50 is 1 nM and the “% efficacy, RXR Trans. Y” value is on record as 105) %. In addition, the Ki on RXRβ [5] was determined as 34 nM. For the same molecule, at RXRα [6], the pEC50 was 9.00 and the Emax stood at 108%.

At RXRα [1], `CCN(c1ccc(C(=O)O)cc1)c1cc2c(cc1OCc1ccc(C)cc1)C(C)(C)CC=C2C(C)C` [Compound 155, 4-{Ethyl-[8-isopropyl-5,5-dimethyl-3-(4-methylbenzyloxy)-5,6-dihydronaphthalen-2-yl]amino}benzoic acid] gave a negative logarithm of the Ki (pKi) of 8.52. Also, the Ki at RXRγ [2] was determined as 398 nM; at RARβ it was 1400 nM; at RARγ, 2900 nM; on RXRβ [5] it was 334 nM.

For `CCN(c1ccc(C(=O)O)cc1)c1cc2c(cc1OC(C)C)C(C)(C)CC=C2C(C)C` [Compound 151, 4-[Ethyl-(3-isopropoxy-5,5-dimethyl-8-isopropyl-5,6-dihydronaphthalen-2-yl)amino]benzoic acid], the pKi at RXRα [1] is 7.27. For the same molecule, the inhibition constant (Ki) was 248 nM at RXRγ [2], 1200 nM at RARβ, over 10000 nM on RARγ and 155 nM at RXRβ [5].

In turn, `CCCN(c1ccc(C(=O)O)cc1)c1cc2c(cc1C)C(C(C)C)=CCC2(C)C` [Compound 54, 4-[n-Propyl-(5-isopropyl-3,8,8-trimethyl-7,8-dihydronaphthalen-2-yl)lamino]benzoic acid] gave a pKi on RXRα [1] of 6.31. Besides, the Ki on RARβ is over 10000 nM. For the same molecule, on RXRβ [3], the EC50 was over 1000 nM and the “% efficacy, RXR Trans. β” value is “(40) %”. In addition, the Ki at RARγ was over 10000 nM. In addition, on RXRγ [4], the “% efficacy, RXR Trans. Y” value is “(85) %”. In addition, the Ki on RXRβ [5] was over 1000 nM. Moreover, on RXRα [6], the pEC50 is 6.42 and the Emax was 66%.

For `CCC1=CCC(C)(C)c2cc(C)c(N(CC)c3ccc(C(=O)O)cc3)cc21` [Compound 24, 4-[Ethyl(8-ethyl-3,5,5-trimethyl-5,6-dihydronaphthalen-2-yl)amino]benzoic acid], on RXRα [1], the pKi was 7.54. In addition, the Ki turned out to be 9100 nM on RARβ, 13000 nM on RARγ and 66 nM on RXRβ [5]. In addition, the results for the EC50 on RXRβ [3] and on RXRγ [4] were 10 nM and 2 nM, respectively. Also, the “% efficacy, RXR Trans. β” value at RXRβ [3] was “(96) %”. Besides, the “% efficacy, RXR Trans. Y” value on RXRγ [4] is on record as “(102) %”. On RXRα [6], this molecule had a pEC50 of 9.00. The Emax at RXRα [6] was 100%.

As to `CCN(c1ccc(C(=O)O)cc1)c1cc2c(cc1C)C(C)(C)CC=C2C(C)C` [Compound 25, 4-[Ethyl(8-isopropyl-3,5,5-trimethyl-5,6-dihydronaphthalen-2-yl)amino]benzoic acid], on RXRα [1], the pKi is 8.70. Also, the Ki at RARβ came out at 6400 nM. At RXRβ [3], the EC50 came out at 0.9 nM and the “% efficacy, RXR Trans. β” value is “(96) %”. Also, at RARγ, the Ki came to 4400 nM. Besides, on RXRγ [4], the EC50 stood at 0.2 nM and the “% efficacy, RXR Trans. Y” value is reported as “(105) %”. On RXRβ [5], the inhibition constant Ki was 20 nM. Besides, on RXRα [6], the pEC50 was over 10.00 and the Emax is 97%.

`CCCCOc1cc2c(cc1N(CC)c1ccc(C(=O)O)cc1)C(C(C)C)=CCC2(C)C` [Compound 152, 4-[(3-n-Butoxy-8-isopropyl-5,5-dimethyl-5,6-dihydronaphthalen-2-yl)ethylamino]benzoic acid]: the pKi at RXRα [1] is 7.54. For the same molecule, the Ki at RXRγ [2] came to 437 nM; on RARβ, 2300 nM; on RXRβ [5], 136 nM.

For the molecule `CCN(c1ccc(C(=O)O)cc1)c1cc2c(cc1C)C(C(C)(C)C)=CCC2(C)C` [Compound 60, 4-[Ethyl-(5-t-butyl-3,8,8-trimethyl-7,8-dihydronaphthalen-2-yl)amino]benzoic acid], the pKi at RXRα [1] is 7.19. Besides, the Ki at RXRγ [2] is 101 nM; on RARβ, over 10000 nM; at RXRβ [5], 426 nM. For the same molecule, on RXRβ [3], the “% efficacy, RXR Trans. β” value was “(60) %”. Further, the EC50 on RXRγ [4] came out at 182 nM. Further, the “% efficacy, RXR Trans. Y” value at RXRγ [4] was “(124) %”. Further, the pEC50 at RXRα [6] was 7.14. For the same molecule, on RXRα [6], the Emax is 88%.

At RXRα [1], `CCN(c1ccc(C(=O)O)cc1)c1cc2c(cc1OCc1cc(C(C)(C)C)cc(C(C)(C)C)c1)C(C)(C)CC=C2C(C)C` [Compound 156, 4-{[3-(3,5-di-t-butylbenzyloxy)-8-isopropyl-5,5-dimethyl-5,6-dihydronaphthalen-2-yl]ethylamino}benzoic acid] gave a pKi of 6.09. The Ki is over 1000 nM at RXRγ [2], 1500 nM on RARβ, 4200 nM at RARγ and over 1000 nM on RXRβ [5].

In turn, `CC1=CCC(C)(C)c2cc(N(C)c3ccc(C(=O)O)cc3)ccc21` [Compound 67, 4-[Methyl-(5,8,8-trimethyl-7,8-dihydro-naphthalen-2-yl)-amino]-benzoic acid] showed a pKi on RXRα [1] of 6.18. In addition, the Ki on RXRγ [2] was 1300 nM; on RARβ it was over 10000 nM; on RXRβ [5], over 1000 nM.

The molecule `CCC1=CCC(C)(C)c2cc(N(CC)c3ccc(C(=O)O)cc3)ccc21` [Compound 75, 4-[Ethyl-(5-ethyl-8,8-dimethyl-7,8-dihydro-naphthalen-2-yl)-amino]-benzoic acid] gave a pKi at RXRα [1] of 6.35. For the same molecule, the Ki at RARβ was over 10000 nM; at RARγ, over 10000 nM; at RXRβ [5], 806 nM. Further, at RXRβ [3], the “% efficacy, RXR Trans. β” value is given as “(75) %”. The “% efficacy, RXR Trans. Y” value on RXRγ [4] is listed as “(95) %”. Moreover, the negative logarithm of the EC50 (pEC50) at RXRα [6] is 6.50. For the same molecule, the Emax on RXRα [6] was 100%.
